Test results as given in ChEMBL document CHEMBL4304777 (Eur J Med Chem, 2019).
Values belong to the compound of their own block, whether it stands above or below them.

Tests used:
[1] = test system: OVCAR-8; experiment: Cytotoxicity against human OVCAR8 cells assessed as reduction in cell viability incubated for 72 hrs by SRB assay; type: functional, cell-based; conditions: OVCAR-8, 72 h
[2] = target: RAC-alpha serine/threonine-protein kinase (Homo sapiens, UniProt P31749); experiment: Inhibition of Akt1 (unknown origin) expressed in Escherichia coli using peptide as substrate incubated for 1 hr by HTRF assay
[3] = test system: HCT-116; experiment: Cytotoxicity against human HCT116 cells assessed as reduction in cell viability incubated for 72 hrs by SRB assay; type: functional, cell-based; conditions: HCT-116, 72 h
[4] = test system: MV4-11; experiment: Antiproliferative activity against human MV4-11 cells assessed as reduction in cell viability; type: functional, cell-based
[5] = test system: RPMI-8226; experiment: Antiproliferative activity against human RPMI8226 cells assessed as reduction in cell viability; type: functional, cell-based
[6] = Antiproliferative activity against human CEM/C1 cells assessed as reduction in cell viability; type: functional, cell-based
[7] = test system: K562; experiment: Antiproliferative activity against human K562 cells assessed as reduction in cell viability; type: functional, cell-based
[8] = test system: MOLT-4; experiment: Antiproliferative activity against human MOLT4 cells assessed as reduction in cell viability; type: functional, cell-based
[9] = test system: JVM-2; experiment: Antiproliferative activity against human JVM2 cells assessed as reduction in cell viability; type: functional, cell-based
[10] = test system: HuT78; experiment: Antiproliferative activity against human HUT78 cells assessed as reduction in cell viability; type: functional, cell-based
[11] = test system: MM1.S; experiment: Antiproliferative activity against human MM1S cells assessed as reduction in cell viability; type: functional, cell-based
[12] = test system: U-937; experiment: Antiproliferative activity against human U937 cells assessed as reduction in cell viability; type: functional, cell-based
[13] = test system: MM1.S; experiment: Antitumor activity against human MM1S cells xenografted in BALB/c mouse assessed as tumor growth inhibition at 30 mg/kg, po administered for 14 days; type: functional; conditions: 336 h, read-out: TGI
[14] = Stability in mouse liver microsomes assessed as remaining compound at 100 ug/ml incubated for 1.5 hrs by LC-MS analysis; type: ADME, Microsome; conditions: read-out: Stability
[15] = Antiproliferative activity against human Mino cells assessed as reduction in cell viability; type: functional, cell-based
[16] = test system: CCRF-CEM; experiment: Antiproliferative activity against human CCRF-CEM cells assessed as reduction in cell viability; type: functional, cell-based
[17] = test system: HCT-116; experiment: Induction of apoptosis in human HCT116 cells assessed as apoptotic cells at 2 uM incubated for 72 hrs by annexin V - FITC and propidium iodide staining based flow cytometry (reference value: 6.99 %); type: functional
[18] = Stability in human plasma assessed as remaining compound at 100 ug/ml incubated for 1.5 hrs by LC-MS analysis; type: ADME, cell-free; conditions: read-out: Stability
[19] = AUC (0 to t) in Sprague-Dawley rat at 10 mg/kg, po measured up 48 hrs by LC-MS/MS analysis; type: ADME, organism-based; conditions: in vivo
[20] = AUC (0 to infinity) in Sprague-Dawley rat at 10 mg/kg, po measured up 48 hrs by LC-MS/MS analysis; type: ADME, organism-based; design: dose 10 mg/kg, time infinity, route oral; conditions: in vivo
[21] = Stability in rat plasma assessed as remaining compound at 100 ug/ml incubated for 1.5 hrs by LC-MS analysis; type: ADME, cell-free; conditions: read-out: Stability
[22] = Tmax in Sprague-Dawley rat at 10 mg/kg, po measured up 48 hrs by LC-MS/MS analysis; type: ADME, organism-based; conditions: in vivo
[23] = target: hERG (KCNH2) (Homo sapiens, UniProt Q12809); experiment: Inhibition of human ERG expressed in HEK293 cells at 3 uM at - 40 mV holding potential by whole cell patch clamp assay relative to control; type: cell-based; conditions: HEK293 cells expressing human ERG
[24] = test system: HCT-116; experiment: Induction of apoptosis in human HCT116 cells assessed as apoptotic cells at 0.4 uM incubated for 72 hrs by annexin V - FITC and propidium iodide staining based flow cytometry (reference value: 6.99 %); type: functional
[25] = AUC (0 to infinity) in Sprague-Dawley rat at 2 mg/kg, iv measured up 48 hrs by LC-MS/MS analysis; type: ADME, organism-based; design: dose 2 mg/kg, time infinity, route intravenous; conditions: in vivo
[26] = AUC (0 to t) in Sprague-Dawley rat at 2 mg/kg, iv measured up 48 hrs by LC-MS/MS analysis; type: ADME, organism-based; conditions: in vivo
[27] = test system: HCT-116; experiment: Induction of apoptosis in human HCT116 cells assessed as apoptotic cells at 10 uM incubated for 72 hrs by annexin V - FITC and propidium iodide staining based flow cytometry (reference value: 6.99 %); type: functional
[28] = Cmax in Sprague-Dawley rat at 2 mg/kg, iv measured up 48 hrs by LC-MS/MS analysis; type: ADME, organism-based; design: dose 2 mg/kg, route intravenous; conditions: in vivo
[29] = Half life in Sprague-Dawley rat at 2 mg/kg, iv measured up 48 hrs by LC-MS/MS analysis; type: ADME, organism-based; conditions: in vivo
[30] = Stability in human liver microsomes assessed as remaining compound at 100 ug/ml incubated for 1.5 hrs by LC-MS analysis; type: ADME, Microsome; conditions: read-out: Stability
[31] = Stability in dog liver microsomes assessed as remaining compound at 100 ug/ml incubated for 1.5 hrs by LC-MS analysis; type: ADME, Canis lupus familiaris, Microsome; conditions: read-out: Stability
[32] = Toxicity in BALB/c mouse xenografted with human MM1S cells assessed as body weight loss at 15 to 30 mg/kg, po administered once daily for 14 days; type: organism-based; conditions: in vivo, 336 h
[33] = Cmax in Sprague-Dawley rat at 10 mg/kg, po measured up 48 hrs by LC-MS/MS analysis; type: ADME, organism-based; design: dose 10 mg/kg, route oral; conditions: in vivo
[34] = Stability in rat liver microsomes assessed as remaining compound at 100 ug/ml incubated for 1.5 hrs by LC-MS analysis; type: ADME, Microsome; conditions: read-out: Stability
[35] = Half life in Sprague-Dawley rat at 10 mg/kg, po measured up 48 hrs by LC-MS/MS analysis; type: ADME, organism-based; conditions: in vivo
[36] = test system: MM1.S; experiment: Antitumor activity against human MM1S cells xenografted in BALB/c mouse assessed as tumor growth inhibition at 15 mg/kg, po administered for 14 days; type: functional; conditions: 336 h, read-out: TGI
[37] = Oral bioavailability in Sprague-Dawley rat at 10 mg/kg, measured up 48 hrs by LC-MS/MS analysis; type: ADME, organism-based; conditions: in vivo
[38] = Tmax in Sprague-Dawley rat at 2 mg/kg, iv measured up 48 hrs by LC-MS/MS analysis; type: ADME, organism-based; conditions: in vivo

RAC-alpha serine/threonine-protein kinase, sequence (P31749 whole entry): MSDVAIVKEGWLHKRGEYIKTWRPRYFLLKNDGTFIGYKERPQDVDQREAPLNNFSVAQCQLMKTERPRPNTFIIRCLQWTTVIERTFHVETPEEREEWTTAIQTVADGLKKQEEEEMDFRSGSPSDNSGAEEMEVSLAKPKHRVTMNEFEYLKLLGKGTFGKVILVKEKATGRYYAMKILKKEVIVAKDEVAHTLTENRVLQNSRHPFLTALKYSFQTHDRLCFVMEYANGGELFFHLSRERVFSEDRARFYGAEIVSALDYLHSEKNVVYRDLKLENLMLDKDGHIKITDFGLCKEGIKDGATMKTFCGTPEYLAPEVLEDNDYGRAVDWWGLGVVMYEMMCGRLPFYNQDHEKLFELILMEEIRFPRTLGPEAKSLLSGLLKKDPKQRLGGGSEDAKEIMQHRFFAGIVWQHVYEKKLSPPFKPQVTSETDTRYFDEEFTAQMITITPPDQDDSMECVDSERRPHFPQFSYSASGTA
hERG (KCNH2), sequence (Q12809 whole entry): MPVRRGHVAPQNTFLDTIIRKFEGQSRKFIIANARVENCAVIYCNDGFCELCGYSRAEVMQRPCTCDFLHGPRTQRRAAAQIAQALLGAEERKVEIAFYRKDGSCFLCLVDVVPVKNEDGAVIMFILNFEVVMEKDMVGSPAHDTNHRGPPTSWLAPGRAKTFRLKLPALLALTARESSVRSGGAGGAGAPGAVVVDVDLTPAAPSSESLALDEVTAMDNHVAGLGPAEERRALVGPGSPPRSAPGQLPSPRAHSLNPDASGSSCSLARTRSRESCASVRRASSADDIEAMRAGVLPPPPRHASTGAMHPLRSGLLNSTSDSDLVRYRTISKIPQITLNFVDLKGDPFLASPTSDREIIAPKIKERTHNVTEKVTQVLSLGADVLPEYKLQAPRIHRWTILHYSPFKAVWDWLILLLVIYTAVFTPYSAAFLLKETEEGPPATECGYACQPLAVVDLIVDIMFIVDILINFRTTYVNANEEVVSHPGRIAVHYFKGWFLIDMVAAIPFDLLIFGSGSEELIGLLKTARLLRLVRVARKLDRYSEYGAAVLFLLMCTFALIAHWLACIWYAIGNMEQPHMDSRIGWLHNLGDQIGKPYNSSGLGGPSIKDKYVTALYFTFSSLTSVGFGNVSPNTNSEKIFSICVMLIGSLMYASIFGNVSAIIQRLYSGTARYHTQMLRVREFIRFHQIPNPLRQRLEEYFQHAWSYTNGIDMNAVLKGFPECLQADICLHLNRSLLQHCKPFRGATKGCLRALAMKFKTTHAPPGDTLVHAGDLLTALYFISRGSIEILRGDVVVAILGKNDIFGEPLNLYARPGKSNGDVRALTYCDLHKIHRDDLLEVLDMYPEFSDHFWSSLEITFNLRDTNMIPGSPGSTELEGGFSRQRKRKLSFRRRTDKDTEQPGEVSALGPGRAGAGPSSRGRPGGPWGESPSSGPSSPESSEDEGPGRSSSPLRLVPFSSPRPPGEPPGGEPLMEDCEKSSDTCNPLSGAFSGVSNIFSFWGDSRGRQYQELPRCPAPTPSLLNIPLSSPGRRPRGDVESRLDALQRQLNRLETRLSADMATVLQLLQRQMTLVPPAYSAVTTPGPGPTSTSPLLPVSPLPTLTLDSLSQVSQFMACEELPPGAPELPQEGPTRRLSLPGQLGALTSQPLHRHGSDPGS

Structure (SMILES): Cn1ncc(Cl)c1-c1ccc(C(=O)N[C@@H]2CNCC[C@H]2c2ccc(Cl)c(C(F)(F)F)c2)s1
- IC50 [1]: 640 nM
- IC50 [2]: 65.2 nM
- IC50 [3]: 1410 nM

Structure (SMILES): Cc1cnn(C)c1-c1ccc(C(=O)N[C@@H]2CNCC[C@H]2c2cccc(F)c2)s1
- IC50 [1]: 1740 nM
- IC50 [2]: 9 nM
- IC50 [3]: 1780 nM

Structure (SMILES): Cn1ncc(CO)c1-c1ccc(C(=O)N[C@@H]2CNCC[C@H]2c2cccc(F)c2)s1
- IC50 [1]: 7170 nM
- IC50 [2]: 62.2 nM
- IC50 [3]: 7420 nM

Structure (SMILES): Cn1nccc1-c1ccc(C(=O)N[C@@H]2CNCC[C@H]2c2cccc(F)c2)s1
- IC50 [1]: 1590 nM
- IC50 [2]: 10.6 nM
- IC50 [3]: 1370 nM

Structure (SMILES): Cn1ncc(-c2ccncc2)c1-c1ccc(C(=O)N[C@@H]2CNCC[C@H]2c2cccc(F)c2)s1
- IC50 [1]: 28000 nM
- IC50 [2]: 99.9 nM
- IC50 [3]: 24000 nM

Structure (SMILES): Cn1ncc(Cl)c1-c1csc(C(=O)N[C@@H]2CNCC[C@H]2c2ccc(Cl)cc2)c1
- IC50 [1]: 5690 nM
- IC50 [2]: 13.7 nM
- IC50 [3]: 1210 nM

Structure (SMILES): C=Cc1cnn(C)c1-c1ccc(C(=O)N[C@@H]2CNCC[C@H]2c2cccc(F)c2)s1
- IC50 [1]: 3190 nM
- IC50 [2]: 46.9 nM
- IC50 [3]: 6850 nM

Structure (SMILES): Cn1ncc(Br)c1-c1ccc(C(=O)N[C@@H]2CNCC[C@H]2c2cccc(F)c2)s1
- IC50 [2]: 5.46 nM
- IC50 [3]: 890 nM

Structure (SMILES): Cn1ncc(Cl)c1-c1ccc(C(=O)N[C@@H]2CNCC[C@H]2c2ccc(Cl)cc2)s1
- IC50 [1]: 1470 nM
- IC50 [2]: 1.8 nM
- IC50 [3]: 3020 nM

Structure (SMILES): Cn1ncc(C(=O)O)c1-c1ccc(C(=O)N[C@@H]2CNCC[C@H]2c2cccc(F)c2)s1
- IC50 [1]: > 50000 nM
- IC50 [2]: 101 nM
- IC50 [3]: > 50000 nM

The next lines start with results.

- IC50 [2]: 35.3 nM
Structure (SMILES): Cn1ncc(Cl)c1-c1csc(C(=O)N[C@@H]2CNCC[C@H]2c2ccc(Cl)c(C(F)(F)F)c2)c1
- IC50 [1]: 580 nM
- IC50 [3]: 1850 nM

- IC50 [4]: 635 nM
- IC50 [5]: 538 nM
- IC50 [7]: > 3000 nM
- IC50 [8]: 66 nM
- IC50 [11]: 32 nM
- IC50 [12]: 101 nM
Structure (SMILES): Cn1ncc(Cl)c1-c1cc(C(=O)N[C@H](CN)Cc2ccc(F)c(F)c2)oc1Cl [UPROSERTIB]
- IC50 [1]: 540 nM
- IC50 [6]: 30 nM
- IC50 [9]: 293 nM
- IC50 [3]: 1750 nM
- IC50 [10]: 378 nM
- inhibition in vivo at 30 mg/kg [13]: 36.8%

- remaining at 1.5 h, 100 ug/ml [14]: 82.7%
- IC50 [4]: 441 nM
- IC50 [5]: 49 nM
- IC50 [16]: 8 nM
- IC50 [7]: > 3000 nM
- IC50 [8]: 14 nM
- remaining at 1.5 h, 100 ug/ml [18]: > 99%
- IC50 [2]: 1.26 nM
- AUC(0-t) at 48 h [19]: 3890 ng·h/mL
- AUC(0-inf) [20]: 3940 ng·h/mL
- remaining at 1.5 h, 100 ug/ml [21]: > 99%
- Tmax [22]: 2.75 h
- AUC(0-inf) [25]: 1510 ng·h/mL
- IC50 [11]: 2 nM
- AUC(0-t) at 48 h [26]: 1480 ng·h/mL
- Cmax [28]: 1440 ng/mL
- half-life [29]: 3.52 h
- remaining at 1.5 h, 100 ug/ml [30]: 88.3%
- remaining at 1.5 h, 100 ug/ml [31]: 81.3%
- IC50 [12]: 188 nM
- Cmax [33]: 423 ng/mL
- remaining at 1.5 h, 100 ug/ml [34]: 63.7%
- half-life [35]: 4.74 h
- bioavailability [37]: 52%
- Tmax [38]: 4.98 min
Structure (SMILES): Cl.Cn1ncc(Cl)c1-c1csc(C(=O)N[C@@H]2CNCC[C@H]2c2cccc(F)c2)c1
- IC50 [15]: 531 nM
- IC50 [6]: 7 nM
- Activity [17]: 8.69%
- IC50 [3]: 950 nM
- inhibition at 3 µM [23]: 40%
- Activity [24]: 7.73%
- Activity [27]: 24.58%
- Activity [32]: Toxic
- inhibition in vivo at 30 mg/kg [13]: 42.1%
- inhibition in vivo at 15 mg/kg [36]: 40.7%

- IC50 [4]: 135 nM
- IC50 [5]: 263 nM
- IC50 [7]: > 3000 nM
- IC50 [8]: 50 nM
- IC50 [11]: 21 nM
- IC50 [12]: 78 nM
Structure (SMILES): Cl.Cn1ncc(Cl)c1-c1ccc(C(=O)N[C@@H]2CNCC[C@H]2c2cccc(F)c2)s1
- IC50 [1]: 230 nM
- IC50 [6]: 28 nM
- Activity [17]: 22.68%
- IC50 [9]: 208 nM
- IC50 [3]: 440 nM
- IC50 [10]: 298 nM
- Activity [24]: 11.66%
- Activity [27]: 89.62%

- IC50 [2]: 48.9 nM
Structure (SMILES): CCc1cnn(C)c1-c1ccc(C(=O)N[C@@H]2CNCC[C@H]2c2cccc(F)c2)s1
- IC50 [1]: 2700 nM
- IC50 [3]: 2830 nM

- IC50 [2]: 10.2 nM
Structure (SMILES): Cn1nccc1-c1ccc(C(=O)N[C@@H]2CNCC[C@H]2c2ccc(Cl)cc2)s1
- IC50 [1]: 1390 nM
- IC50 [3]: 8870 nM

- IC50 [2]: 70.4 nM
Structure (SMILES): Cn1ncc(-c2ccccc2)c1-c1ccc(C(=O)N[C@@H]2CNCC[C@H]2c2cccc(F)c2)s1
- IC50 [1]: 2510 nM
- IC50 [3]: 4420 nM
